Experimental data reported in patent publication US20240132484A1, “BROAD SPECTRUM ANTIVIRAL COMPOUNDS TARGETING THE SKI COMPLEX” (priority 2020, published 2024).
Several values for one entry are separate records, joined by “and”; a condition that tells them apart may be missing. Equal entries are not always repeated. Where two headings read alike, the source gives them in different places.

Assays:
SARS2 = type: cell-based, SARS-CoV-2; details: for Percentage Infection Relative to Appropriate DMSO Control with Avg Background Subtraction: single well; for Percentage Inhibition Average 1 μM / Screening data (Relative infection to DMSO controls) Average 1 μM: SARS2, 1 μM; for Screening data (Relative infection to DMSO controls) Average 1 μM / Screening data (Relative infection to DMSO controls) Average 5 μM / Screening data (Relative infection to DMSO controls) Average 10 μM / Screening data (Relative infection to DMSO controls) Average 25 μM / Screening data (Relative infection to DMSO controls) Average 50 μM / Average (relative infection to DMSO over the 5 tested concentrations): 100=DMSO control; for Percentage Inhibition Average 5 μM / Screening data (Relative infection to DMSO controls) Average 5 μM: SARS2, 5 μM; for Percentage Inhibition Average 10 μM / Screening data (Relative infection to DMSO controls) Average 10 μM: SARS2, 10 μM; for Percentage Inhibition Average 25 μM / Screening data (Relative infection to DMSO controls) Average 25 μM: SARS2, 25 μM; for Percentage Inhibition Average 50 μM / Screening data (Relative infection to DMSO controls) Average 50 μM: SARS2, 50 μM; for Average (relative infection to DMSO over the 5 tested concentrations): SARS2, average over 1 to 50 uM; for Infection Data: Percentage Infection Relative to Appropriate DMSO Control: avg background subtraction, replicate wells; for Infection Data: Average, Mean: average of Exp 1-3 (SMW475, SMW477, SMW478), n 9
cells (nuclei count) = details: for Relative cell count to DMSO controls, Average 1 μM / Relative cell count to DMSO controls, Average 5 μM / Relative cell count to DMSO controls, Average 10 μM / Relative cell count to DMSO controls, Average 25 μM / Relative cell count to DMSO controls, Average 50 μM: toxicity data, 100=DMSO control; for Relative cell count to DMSO controls, Average (for correlation analysis): average value over the 5 tested concentrations (1 to 50 uM); for Toxicity Data: Average, Mean: average of Exp 1-3 (SMW475, SMW477, SMW478), n 9

OC(COc1c(CNCCc2ccccc2F)cccc1N1CCNCC1)CN1CCCC1 (stereo not shown) [SILCS22]
SARS2 antiviral activity (SARS2): activity approaching that of UMB18
Infection Data, Average, Mean (SARS2; Average of Exp 1-3, n 9, 1 uM): 72.38%
Infection Data, Average, Mean (SARS2; Average of Exp 1-3, n 9, 5 uM): 70.31%
Infection Data, Average, Mean (SARS2; Average of Exp 1-3, n 9, 10 uM): 53.13%
Infection Data, Average, Mean (SARS2; Average of Exp 1-3, n 9, 25 uM): 6.37%
Infection Data, Average, Mean (SARS2; Average of Exp 1-3, n 9, 50 uM): 2.68%
Percentage Infection Relative to Appropriate DMSO Control with Avg Background Subtraction (SARS2; Exp 1 (SMW475), 1 uM): 68.46% and 64.64% and 77.37%
Percentage Infection Relative to Appropriate DMSO Control with Avg Background Subtraction (SARS2; Exp 1 (SMW475), 5 uM): 32.75% and 46.98% and 35.47%
Percentage Infection Relative to Appropriate DMSO Control with Avg Background Subtraction (SARS2; Exp 1 (SMW475), 10 uM): 15.62% and 28.80% and 29.55%
Percentage Infection Relative to Appropriate DMSO Control with Avg Background Subtraction (SARS2; Exp 1 (SMW475), 25 uM): 2.49% and 6.38% and 4.75%
Percentage Infection Relative to Appropriate DMSO Control with Avg Background Subtraction (SARS2; Exp 1 (SMW475), 50 uM): 0.02% and 3.92% and 4.65%
Percentage Infection Relative to Appropriate DMSO Control with Avg Background Subtraction (SARS2; Exp 2 (SMW477), 1 uM): 76.88% and 75.65% and 76.95%
Percentage Infection Relative to Appropriate DMSO Control with Avg Background Subtraction (SARS2; Exp 2 (SMW477), 5 uM): 93.66% and 92.49% and 88.62%
Percentage Infection Relative to Appropriate DMSO Control with Avg Background Subtraction (SARS2; Exp 2 (SMW477), 10 uM): 68.54% and 46.53% and 47.36%
Percentage Infection Relative to Appropriate DMSO Control with Avg Background Subtraction (SARS2; Exp 2 (SMW477), 25 uM): 5.13% and 4.50% and 4.04%
Percentage Infection Relative to Appropriate DMSO Control with Avg Background Subtraction (SARS2; Exp 2 (SMW477), 50 uM): 3.65% and 0.99% and 1.90%
Percentage Infection Relative to Appropriate DMSO Control with Avg Background Subtraction (SARS2; Exp 3 (SMW478), 1 uM): 62.06% and 83.81% and 65.64%
Percentage Infection Relative to Appropriate DMSO Control with Avg Background Subtraction (SARS2; Exp 3 (SMW478), 5 uM): 69.69% and 88.68% and 84.47%
Percentage Infection Relative to Appropriate DMSO Control with Avg Background Subtraction (SARS2; Exp 3 (SMW478), 10 uM): 92.75% and 69.87% and 79.13%
Percentage Infection Relative to Appropriate DMSO Control with Avg Background Subtraction (SARS2; Exp 3 (SMW478), 25 uM): 8.14% and 10.91% and 10.99%
Percentage Infection Relative to Appropriate DMSO Control with Avg Background Subtraction (SARS2; Exp 3 (SMW478), 50 uM): 1.60% and 3.82% and 3.54%
Percentage Inhibition Average 1 μM (SARS2): 27.62%
Screening data (Relative infection to DMSO controls) Average 1 μM (SARS2): 72.38
Percentage Inhibition Average 5 μM (SARS2): 29.69%
Screening data (Relative infection to DMSO controls) Average 5 μM (SARS2): 70.31
Percentage Inhibition Average 10 μM (SARS2): 46.87%
Screening data (Relative infection to DMSO controls) Average 10 μM (SARS2): 53.13
Percentage Inhibition Average 25 μM (SARS2): 93.63%
Screening data (Relative infection to DMSO controls) Average 25 μM (SARS2): 6.37
Percentage Inhibition Average 50 μM (SARS2): 97.32%
Screening data (Relative infection to DMSO controls) Average 50 μM (SARS2): 2.68
Average (relative infection to DMSO over the 5 tested concentrations) (SARS2): 40.97
Relative cell count to DMSO controls, Average 1 μM (cells (nuclei count)): 126.41
Relative cell count to DMSO controls, Average 5 μM (cells (nuclei count)): 125.64
Relative cell count to DMSO controls, Average 10 μM (cells (nuclei count)): 137.18
Relative cell count to DMSO controls, Average 25 μM (cells (nuclei count)): 131.85
Relative cell count to DMSO controls, Average 50 μM (cells (nuclei count)): 68.81
Toxicity Data, Average, Mean (cells (nuclei count); Average of Exp 1-3, n 9, 1 uM): 126.41%
Toxicity Data, Average, Mean (cells (nuclei count); Average of Exp 1-3, n 9, 5 uM): 125.64%
Toxicity Data, Average, Mean (cells (nuclei count); Average of Exp 1-3, n 9, 10 uM): 137.18%
Toxicity Data, Average, Mean (cells (nuclei count); Average of Exp 1-3, n 9, 25 uM): 131.85%
Toxicity Data, Average, Mean (cells (nuclei count); Average of Exp 1-3, n 9, 50 uM): 68.81%
Relative cell count to DMSO controls, Average (for correlation analysis) (cells (nuclei count)): 117.98

Cc1csc(CN(CCN(C)C)Cc2ccco2)c1 [SILCS17]
Infection Data: Percentage Infection Relative to Appropriate DMSO Control (SARS2; 1 uM, Exp 1 (SMW475)): 78.55% and 85.49% and 89.26%
Infection Data: Percentage Infection Relative to Appropriate DMSO Control (SARS2; 1 uM, Exp 2 (SMW477)): 101.46% and 156.03% and 155.63%
Infection Data: Percentage Infection Relative to Appropriate DMSO Control (SARS2; 1 uM, Exp 3 (SMW478)): 90.81% and 93.25% and 105.34%
Infection Data: Average, Mean (SARS2; 1 uM): 106.20%
Infection Data: Percentage Infection Relative to Appropriate DMSO Control (SARS2; 5 uM, Exp 1 (SMW475)): 86.61% and 84.44% and 77.45%
Infection Data: Percentage Infection Relative to Appropriate DMSO Control (SARS2; 5 uM, Exp 2 (SMW477)): 142.87% and 172.05% and 157.06%
Infection Data: Percentage Infection Relative to Appropriate DMSO Control (SARS2; 5 uM, Exp 3 (SMW478)): 97.85% and 101.86% and 101.30%
Infection Data: Average, Mean (SARS2; 5 uM): 113.50%
Infection Data: Percentage Infection Relative to Appropriate DMSO Control (SARS2; 10 uM, Exp 1 (SMW475)): 75.56% and 86.80% and 108.19%
Infection Data: Percentage Infection Relative to Appropriate DMSO Control (SARS2; 10 uM, Exp 2 (SMW477)): 130.54% and 160.59% and 172.84%
Infection Data: Percentage Infection Relative to Appropriate DMSO Control (SARS2; 10 uM, Exp 3 (SMW478)): 90.38% and 97.98% and 103.28%
Infection Data: Average, Mean (SARS2; 10 uM): 114.02%
Infection Data: Percentage Infection Relative to Appropriate DMSO Control (SARS2; 25 uM, Exp 1 (SMW475)): 41.54% and 68.32% and 68.68%
Infection Data: Percentage Infection Relative to Appropriate DMSO Control (SARS2; 25 uM, Exp 2 (SMW477)): 38.35% and 67.19% and 82.12%
Infection Data: Percentage Infection Relative to Appropriate DMSO Control (SARS2; 25 uM, Exp 3 (SMW478)): 68.44% and 109.27% and 278.92%
Infection Data: Average, Mean (SARS2; 25 uM): 91.43%
Infection Data: Percentage Infection Relative to Appropriate DMSO Control (SARS2; 50 uM, Exp 1 (SMW475)): 15.74% and 49.90% and 30.92%
Infection Data: Percentage Infection Relative to Appropriate DMSO Control (SARS2; 50 uM, Exp 2 (SMW477)): 11.74% and 25.42% and 30.96%
Infection Data: Percentage Infection Relative to Appropriate DMSO Control (SARS2; 50 uM, Exp 3 (SMW478)): 20.44% and 62.60% and 81.13%
Infection Data: Average, Mean (SARS2; 50 uM): 36.54%
Percentage Inhibition Average 1 μM (SARS2): −6.20%
Screening data (Relative infection to DMSO controls) Average 1 μM (SARS2): 106.20
Percentage Inhibition Average 5 μM (SARS2): −13.50%
Screening data (Relative infection to DMSO controls) Average 5 μM (SARS2): 113.50
Percentage Inhibition Average 10 μM (SARS2): −14.02%
Screening data (Relative infection to DMSO controls) Average 10 μM (SARS2): 114.02
Percentage Inhibition Average 25 μM (SARS2): 8.57%
Screening data (Relative infection to DMSO controls) Average 25 μM (SARS2): 91.43
Percentage Inhibition Average 50 μM (SARS2): 63.46%
Screening data (Relative infection to DMSO controls) Average 50 μM (SARS2): 36.54
Average (relative infection to DMSO over the 5 tested concentrations) (SARS2): 92.34
Toxicity Data: Average, Mean (cells (nuclei count); 1 uM): 96.29%
Relative cell count to DMSO controls, Average 1 μM (cells (nuclei count)): 96.29
Toxicity Data: Average, Mean (cells (nuclei count); 5 uM): 89.17%
Relative cell count to DMSO controls, Average 5 μM (cells (nuclei count)): 89.17
Toxicity Data: Average, Mean (cells (nuclei count); 10 uM): 88.87%
Relative cell count to DMSO controls, Average 10 μM (cells (nuclei count)): 88.87
Toxicity Data: Average, Mean (cells (nuclei count); 25 uM): 75.47%
Relative cell count to DMSO controls, Average 25 μM (cells (nuclei count)): 75.47
Toxicity Data: Average, Mean (cells (nuclei count); 50 uM): 53.52%
Relative cell count to DMSO controls, Average 50 μM (cells (nuclei count)): 53.52
Relative cell count to DMSO controls, Average (for correlation analysis) (cells (nuclei count)): 80.66
